From patent publication US11904020B2, “Bicyclic peptide ligands specific for TREM2” (Bicycle Tx Limited, priority 2021, dated 2024) come the findings set out here.

*1 amine or outer side, *2 acyl side, *3 side chain or, on linkers, in order; H or OH if unused. Where a SMILES comes first, the peptide text is derived from it. Bridges are numbered along the chain shown (N, C = ends). [ ]: non-standard residue; d: D form. TATA = O=C(CC[*:1])N1CN(C(=O)CC[*:2])CN(C(=O)CC[*:3])C1; Bip = N[C@@H](Cc1ccc(-c2ccccc2)cc1)C(=O)O; Phe(4-Me) = Cc1ccc(C[C@H](N)C(=O)O)cc1; Phe(2-Me) = Cc1ccccc1C[C@H](N)C(=O)O; tBuAla = CC(C)(C)C[C@H](N)C(=O)O; 4Pal = N[C@@H](Cc1ccncc1)C(=O)O

For the first test, the target named is T1, TREM2 receptor (Homo sapiens, UniProt Q9NZC2).
T1 construct: Both parental (TREM2 expressing) and isogenic TREM2 KO iPSC macrophages were plated; endogenous in cells; host or cells: human iPSC-derived macrophages (parental, TREM2 expressing)
T1 sequence (Q9NZC2 19-230): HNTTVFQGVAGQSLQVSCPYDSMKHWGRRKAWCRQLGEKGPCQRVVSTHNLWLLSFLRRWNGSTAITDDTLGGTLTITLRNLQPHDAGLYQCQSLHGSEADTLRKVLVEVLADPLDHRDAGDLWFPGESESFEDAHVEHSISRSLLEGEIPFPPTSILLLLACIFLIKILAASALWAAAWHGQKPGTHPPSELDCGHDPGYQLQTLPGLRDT
The experiment in a line: pSYK Homogenous Time Resolved Fluorescence (HTRF) assay in iPSC macrophages. It counts as cell-based. The note with it: human iPSC macrophages, 5 mins stimulation, phospho (Tyr 525/526) SYK; NB = no binding; read-out: pSYK. The method, then: Quantitative assessment of total and phospho (Tyr 525/526) SYK was performed on iPSC macrophages using CisBio total and phospho-SYK HTRF kits (catalogue numbers 64SYKTPGG and 64SYKY525-PEG respectively). Human iPSC macrophage precursors derived from embryoid bodies were plated in 96 well plates (Perkin Elmer Cell Carrier ultra, black walled plates, #6055800) at a density of 40 k cells per well in 100 μl macrophage media (XVIVO15 (Lonza, #BE04-418F), 1% Penicillin-Streptomycin (Gibco, #15140-122), 1% GlutaMAX™ Supplement (Gibco, #35050-038), 0.1% M-CSF (Invitrogen, #PHC9501)). Cells were grown for 7 days to induce full differentiation to iPSC macrophages. Both parental (TREM2 expressing) and isogenic TREM2 KO iPSC macrophages were plated to test for specificity of peptide binding. Following differentiation, cells were stimulated for 5 mins with either the control TREM2 activating antibody (R&D systems, #AF1828), a human IgG control (R&D systems, #AB-108-C), or a 10 point CRC of bicyclic peptide (serial 2 fold dilutions from a starting concentration of 100 μM). Following stimulation the media was removed, and cells were lysed in 50 μl lysis buffer (supplied with the kit) per well. Cells were incubated in LB3 for 30 mins with shaking at room temperature. Following lysis, 16 μl of sample was removed and added to a white 384 well plate (ProxiPlate-384 Plus (Perkin Elmer, #6008280)) and 4 μl of pre-mixed antibody solution was added to each well of the plate. The plate was incubated overnight at room temperature, and the following day, […] was measured at 665 nm and 620 nm using a Pherastar FSX. The same cell lysate was used to assess total and phosphorylated SYK, to enable the generation of a ratio of phosphorylated SYK in each sample.
A general note: Time-resolved FRET reads energy transfer from a long-lived donor to a nearby acceptor.
For `CC(=O)N[C@H]1CSCCC(=O)N2CN3CN(C2)C(=O)CCSC[C@H](NC(=O)[C@H](Cc2ccc(O)cc2)NC(=O)[C@H](CCC(=O)O)NC(=O)[C@H](CO)NC1=O)C(=O)N[C@@H](Cc1ccc(C)cc1)C(=O)N[C@@H](Cc1c[nH]c2ccccc12)C(=O)N1CCC[C@H]1C(=O)N[C@@H](Cc1ccccc1)C(=O)N[C@@H](Cc1ccc(O)cc1)C(=O)N[C@@H](C)C(=O)N[C@H](C(N)=O)CSCCC3=O` [BCY19298, Ac-(SEQ ID NO: 30)] (Ac-CSEYC[Phe(4-Me)]WPFYAC-NH2; linker 1-5-12 via TATA; C-terminus assumed), the EC50 is under 3400 nM.

A further test has as its target TREM2 extracellular domain (ECD) (residues 19-131, C-terminally biotinylated, deglycosylated or glycosylated) (Homo sapiens, UniProt Q9NZC2). The experiment in a line: biochemical. The note with it: Human BLI (Kd; nM) (deglycosylated), Table 4B; deglycosylated human TREM2 ECD; steady-state KD, 25° C.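 Note: Bio-layer interferometry in 50 mM HEPES pH 7.5 with 150 mM NaCl and 0.1% Tween, double-referenced with blank wells and unrelated-protein sensors, equilibrium response fitted versus concentration.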
Protocol: Bio-layer interferometry was performed on an Octet RED384® system (Sartorius) at 25° C. in a buffer containing 50 mM HEPES (pH 7.5), 150 mM NaCl and 0.1% Tween. TREM2 extracellular domain (ECD) (residues 19-131, C-terminally biotinylated, deglycosylated or glycosylated) was loaded onto Superstreptavidin biosensors (SSA, 18-5070, Sartorius) at 0.0125 mg/ml for 300 s. Bicycle peptides (10 mM in DMSO) were dispensed into 384-Well Tilted-Bottom Plates (18-5076, Sartorius) using an Echo liquid handler giving a final DMSO concentration of 0.125% in all wells including control wells. Association of defined concentrations of bicyclic peptide (0-12.5 μM, 1:2 dilutions for 7 points) was recorded over 120 s followed by dissociation in buffer over 120 s. Reference wells containing no bicycle peptides and reference sensors loaded with an unrelated protein (His-tagged MLLT3a) were subjected to the same assay protocol and double reference subtraction was used for processing to account for non-specific binding. Traces were analysed using Octet Software (Version 11.0). Association and dissociation curves were globally fit and the response at equilibrium (Req) plotted against concentration to obtain steady-state KD values.
As to `CC(=O)N[C@H]1CSCCC(=O)N2CN3CN(C2)C(=O)CCSC[C@H](NC(=O)[C@H](Cc2ccc(O)cc2)NC(=O)[C@H](CCC(=O)O)NC(=O)[C@H](CO)NC1=O)C(=O)N[C@@H](Cc1ccccc1)C(=O)N[C@@H](Cc1ccccc1C)C(=O)N1CCC[C@H]1C(=O)N[C@@H](Cc1ccccc1)C(=O)N[C@@H](Cc1ccc(O)cc1)C(=O)N[C@@H](Cc1c[nH]cn1)C(=O)N[C@H](C(N)=O)CSCCC3=O` [BCY20063, Ac-(SEQ ID NO: 61)] (Ac-CSEYCF[Phe(2-Me)]PFYHC-NH2; linker 1-5-12 via TATA), the affinity, expressed as Kd, was 1300 nM. In the case of `CC(=O)N[C@H]1CSCCC(=O)N2CN3CN(C2)C(=O)CCSC[C@H](NC(=O)[C@H](Cc2ccc(O)cc2)NC(=O)[C@H](CCC(=O)O)NC(=O)[C@H](CO)NC1=O)C(=O)N[C@@H](Cc1ccccc1)C(=O)N[C@@H](Cc1c[nH]c2ccccc12)C(=O)N1CC[C@H]1C(=O)N[C@@H](Cc1ccccc1)C(=O)N[C@@H](Cc1ccc(O)cc1)C(=O)N[C@@H](Cc1c[nH]cn1)C(=O)N[C@H](C(N)=O)CSCCC3=O` [BCY20068, Ac-(SEQ ID NO: 64)], the equilibrium dissociation constant (Kd) – broadly, a measure of binding affinity in units of concentration – was determined as 2540 nM. This Kd lies about 2-fold higher than the previous one. As for `CC(=O)N[C@H]1CSCCC(=O)N2CN3CN(C2)C(=O)CCSC[C@H](NC(=O)[C@H](Cc2ccc(O)cc2)NC(=O)[C@H](CCC(=O)O)NC(=O)[C@H](CO)NC1=O)C(=O)N[C@@H](Cc1ccccc1)C(=O)N[C@@H](Cc1c[nH]c2ccccc12)C(=O)N1CCCC[C@H]1C(=O)N[C@@H](Cc1ccccc1)C(=O)N[C@@H](Cc1ccc(O)cc1)C(=O)N[C@@H](Cc1c[nH]cn1)C(=O)N[C@H](C(N)=O)CSCCC3=O` [BCY20069, Ac-(SEQ ID NO: 62)], the Kd was determined as 1460 nM.

As to `CC(=O)N[C@H]1CSCCC(=O)N2CN3CN(C2)C(=O)CCSC[C@H](NC(=O)[C@H](Cc2ccc(O)cc2)NC(=O)[C@H](CCC(=O)O)NC(=O)[C@H](CO)NC1=O)C(=O)N[C@@H](Cc1ccccc1)C(=O)N[C@@H](Cc1c[nH]c2ccccc12)C(=O)N1CCC[C@H]1C(=O)N[C@@H](Cc1ccc(-c2ccccc2)cc1)C(=O)N[C@@H](Cc1ccc(O)cc1)C(=O)N[C@@H](Cc1c[nH]cn1)C(=O)N[C@H](C(N)=O)CSCCC3=O` [BCY20075, Ac-(SEQ ID NO: 71)] (Ac-CSEYCFWP[Bip]YHC-NH2; linker 1-5-12 via TATA), the equilibrium dissociation constant (Kd) was 2400 nM. Turning to `CC(=O)N[C@H]1CSCCC(=O)N2CN3CN(C2)C(=O)CCSC[C@H](NC(=O)[C@H](Cc2ccc(O)cc2)NC(=O)[C@H](CCC(=O)O)NC(=O)[C@H](CO)NC1=O)C(=O)N[C@@H](Cc1ccccc1)C(=O)N[C@@H](Cc1c[nH]c2ccccc12)C(=O)N1CCC[C@H]1C(=O)N[C@@H](Cc1ccccc1)C(=O)N[C@@H](Cc1ccc(O)cc1)C(=O)N[C@@H](CC(N)=O)C(=O)N[C@H](C(N)=O)CSCCC3=O` [BCY20083, Ac-(SEQ ID NO: 78)] (Ac-CSEYCFWPFYNC-NH2; linker 1-5-12 via TATA), binding was put at a Kd of 1830 nM. The molecule `CC(=O)N[C@H]1CSCCC(=O)N2CN3CN(C2)C(=O)CCSC[C@H](NC(=O)[C@H](Cc2ccc(O)cc2)NC(=O)[C@H](CCC(=O)O)NC(=O)[C@@H](C)NC1=O)C(=O)N[C@@H](Cc1ccccc1)C(=O)N[C@@H](Cc1c[nH]c2ccccc12)C(=O)N1CCC[C@H]1C(=O)N[C@@H](Cc1ccccc1)C(=O)N[C@@H](Cc1ccc(O)cc1)C(=O)N[C@@H](Cc1c[nH]cn1)C(=O)N[C@H](C(N)=O)CSCCC3=O` [BCY20086, Ac-(SEQ ID NO: 79)] registered a Kd of 17900 nM. Regarding `CC(=O)N[C@H]1CSCCC(=O)N2CN3CN(C2)C(=O)CCSC[C@H](NC(=O)[C@H](Cc2ccc(O)cc2)NC(=O)[C@@H](C)NC(=O)[C@H](CO)NC1=O)C(=O)N[C@@H](Cc1ccccc1)C(=O)N[C@@H](Cc1c[nH]c2ccccc12)C(=O)N1CCC[C@H]1C(=O)N[C@@H](Cc1ccccc1)C(=O)N[C@@H](Cc1ccc(O)cc1)C(=O)N[C@@H](Cc1c[nH]cn1)C(=O)N[C@H](C(N)=O)CSCCC3=O` [BCY20087, Ac-(SEQ ID NO: 80)], the Kd amounted to 18000 nM. Same read-out and setting: the value for `CC(=O)N[C@H]1CSCCC(=O)N2CN3CN(C2)C(=O)CCSC[C@H](NC(=O)[C@H](Cc2ccc(O)cc2)NC(=O)[C@H](CCC(=O)O)NC(=O)[C@H](CO)NC1=O)C(=O)N[C@@H](Cc1ccccc1)C(=O)N[C@@H](Cc1c[nH]c2ccccc12)C(=O)N1CCC[C@H]1C(=O)N[C@@H](Cc1ccccc1)C(=O)N[C@@H](CCC(N)=O)C(=O)N[C@@H](Cc1ccc(O)cc1)C(=O)N[C@H](C(N)=O)CSCCC3=O` [BCY20220, Ac-(SEQ ID NO: 23)] (Ac-CSEYCFWPFQYC-NH2; linker 1-5-12 via TATA) was 1300 nM. On the same count and under the same terms, the value for `CC(=O)N[C@H]1CSCCC(=O)N2CN3CN(C2)C(=O)CCSC[C@H](NC(=O)[C@H](Cc2ccc(O)cc2)NC(=O)[C@H](CCC(=O)O)NC(=O)[C@H](CO)NC1=O)C(=O)N[C@@H](Cc1ccccc1)C(=O)N[C@@H](Cc1c[nH]c2ccccc12)C(=O)N1CCC[C@H]1C(=O)N[C@@H](Cc1ccncc1)C(=O)N[C@@H](Cc1ccc(O)cc1)C(=O)N[C@@H](Cc1c[nH]cn1)C(=O)N[C@H](C(N)=O)CSCCC3=O` [BCY20569, Ac-(SEQ ID NO: 95)] (Ac-CSEYCFWP[4Pal]YHC-NH2; linker 1-5-12 via TATA) was 3800 nM; that for `CC(=O)N[C@H]1CSCCC(=O)N2CN3CN(C2)C(=O)CCSC[C@H](NC(=O)[C@H](Cc2ccc(O)cc2)NC(=O)[C@H](CCC(=O)O)NC(=O)[C@H](CO)NC1=O)C(=O)N[C@@H](Cc1ccccc1)C(=O)N[C@@H](Cc1c[nH]c2ccccc12)C(=O)N1CCC[C@H]1C(=O)N[C@@H](Cc1ccccc1)C(=O)N[C@@H](Cc1ccc(O)cc1)C(=O)N[C@@H](CCC(N)=O)C(=O)N[C@H](C(N)=O)CSCCC3=O` [BCY20572, Ac-(SEQ ID NO: 98)] (Ac-CSEYCFWPFYQC-NH2; linker 1-5-12 via TATA) was 1060 nM.

`CC(=O)N[C@H]1CSCCC(=O)N2CN3CN(C2)C(=O)CCSC[C@H](NC(=O)[C@H](Cc2ccc(O)cc2)NC(=O)[C@H](CCC(=O)O)NC(=O)[C@H](CO)NC1=O)C(=O)N[C@@H](Cc1ccccc1)C(=O)N[C@@H](Cc1c[nH]c2ccccc12)C(=O)N1CCC[C@H]1C(=O)N[C@@H](Cc1ccccc1)C(=O)N[C@@H](Cc1ccc(O)cc1)C(=O)N[C@@H](Cc1ccccc1)C(=O)N[C@H](C(N)=O)CSCCC3=O` [BCY20576, Ac-(SEQ ID NO: 102)] (Ac-CSEYCFWPFYFC-NH2; linker 1-5-12 via TATA) had a Kd of 1350 nM.

Staying with this test, now noted: Human BLI (Kd; nM) glycosylated, Table 4B; glycosylated human TREM2 ECD.
For `CC(=O)N[C@H]1CSCCC(=O)N2CN3CN(C2)C(=O)CCSC[C@H](NC(=O)[C@H](Cc2ccc(O)cc2)NC(=O)[C@H](CCC(=O)O)NC(=O)[C@H](CO)NC1=O)C(=O)N[C@@H](Cc1ccccc1)C(=O)N[C@@H](Cc1c[nH]c2ccccc12)C(=O)N1CCC[C@H]1C(=O)N[C@@H](CC(C)(C)C)C(=O)N[C@@H](Cc1ccc(O)cc1)C(=O)N[C@@H](Cc1c[nH]cn1)C(=O)N[C@H](C(N)=O)CSCCC3=O` [BCY20074, Ac-(SEQ ID NO: 68)] (Ac-CSEYCFWP[tBuAla]YHC-NH2; linker 1-5-12 via TATA), binding was put at a Kd of 920 nM.

`CC(=O)N[C@H]1CSCCC(=O)N2CN3CN(C2)C(=O)CCSC[C@H](NC(=O)[C@H](Cc2ccc(O)cc2)NC(=O)[C@H](CCC(=O)O)NC(=O)[C@H](CO)NC1=O)C(=O)N[C@@H](Cc1ccccc1)C(=O)N[C@@H](Cc1c[nH]c2ccccc12)C(=O)N1CCC[C@H]1C(=O)N[C@@H](Cc1ccccc1)C(=O)N[C@@H](Cc1c[nH]c2ccccc12)C(=O)N[C@@H](Cc1c[nH]cn1)C(=O)N[C@H](C(N)=O)CSCCC3=O` [BCY20077, Ac-(SEQ ID NO: 73)] (Ac-CSEYCFWPFWHC-NH2; linker 1-5-12 via TATA) gave a Kd of 750 nM.
